2 molecules from patent publication US20200239530A1, “COMPOUNDS AND METHODS OF MODULATING PROTEIN DEGRADATION” (Vividion Therapeutics, Inc., priority 2017, published 2020) can be followed below.

Assay [1] concerns the target T1, DDX50 ATP-dependent RNA helicase DDX50 (Homo sapiens, UniProt Q9BQ39).
T1 construct: 200 μL of lysate containing 5 mg/ml proteome was treated with 2 μL of 100× compound stock; endogenous in cells
T1 sequence (Q9BQ39 1-737): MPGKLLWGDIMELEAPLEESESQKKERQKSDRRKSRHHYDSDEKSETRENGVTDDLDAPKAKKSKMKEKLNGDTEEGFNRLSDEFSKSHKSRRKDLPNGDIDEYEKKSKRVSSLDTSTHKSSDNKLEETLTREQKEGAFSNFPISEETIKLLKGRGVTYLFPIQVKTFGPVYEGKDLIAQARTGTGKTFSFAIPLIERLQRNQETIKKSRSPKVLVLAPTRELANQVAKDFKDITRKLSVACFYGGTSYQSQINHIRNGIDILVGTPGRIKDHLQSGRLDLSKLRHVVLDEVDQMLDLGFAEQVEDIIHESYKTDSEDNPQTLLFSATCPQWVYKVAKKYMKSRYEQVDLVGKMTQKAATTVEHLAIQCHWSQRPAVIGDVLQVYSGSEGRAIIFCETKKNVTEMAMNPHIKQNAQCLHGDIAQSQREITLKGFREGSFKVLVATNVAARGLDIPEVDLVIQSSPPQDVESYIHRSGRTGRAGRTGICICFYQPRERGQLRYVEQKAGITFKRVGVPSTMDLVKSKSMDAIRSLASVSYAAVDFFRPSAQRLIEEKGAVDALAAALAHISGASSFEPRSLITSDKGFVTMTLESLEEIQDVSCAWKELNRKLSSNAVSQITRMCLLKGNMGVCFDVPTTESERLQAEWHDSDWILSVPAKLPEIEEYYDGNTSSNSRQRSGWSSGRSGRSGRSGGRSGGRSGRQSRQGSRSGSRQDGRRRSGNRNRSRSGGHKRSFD
Nature of the assay: Cysteine liganding, probe competition. Type of assay: binding. An outline of the steps:
(§1)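 Lysates from probe-sonicated cells in PBS (5 mg/ml proteome) were exposed to compound for 1 hr at 25° C, then labelled with desthiobiotin iodoacetamide probe (10 mM stock) for 1 hr at 25° C. Probe-tagged peptides were streptavidin-enriched after trypsin digestion.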

For assay [2], the target named is T2, MAPK8 Mitogen-activated protein kinase 8 (Homo sapiens, UniProt P45983).
T2 construct: Cells were resuspended in cold PBS on ice and sonicated with a probe sonicator to achieve lysis; endogenous in cells
Put plainly: Cysteine liganding, probe competition. Particulars: for 100 Max / 100 ave / 500 ave / 500 Max: uniprot P45983; for 500 Max: in % (unit assumed). The assay is classed as binding. An outline of the steps:
as §1

T2 sequence (P45983 whole entry): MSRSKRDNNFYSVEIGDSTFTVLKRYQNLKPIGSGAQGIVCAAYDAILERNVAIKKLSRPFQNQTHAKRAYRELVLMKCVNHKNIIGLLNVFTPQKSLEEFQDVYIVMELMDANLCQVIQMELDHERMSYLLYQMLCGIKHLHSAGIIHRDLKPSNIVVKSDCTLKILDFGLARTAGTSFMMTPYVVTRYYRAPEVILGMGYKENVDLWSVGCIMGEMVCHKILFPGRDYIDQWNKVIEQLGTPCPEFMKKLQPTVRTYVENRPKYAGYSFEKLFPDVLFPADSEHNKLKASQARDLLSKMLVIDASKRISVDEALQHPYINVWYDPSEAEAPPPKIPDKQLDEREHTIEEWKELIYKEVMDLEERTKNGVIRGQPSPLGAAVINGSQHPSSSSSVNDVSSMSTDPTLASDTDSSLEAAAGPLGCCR

As for `COc1ccc2c(c1)CCCN2C(=O)CCl` [KB02], the Liganded entry in assay [1] (DDX50 Res# 603, uniprot Q9BQ39) is given as “YES”. Further, in assay [2] (MAPK8 Res# 245, uniprot P45983), the Liganded entry was “YES”. Moreover, in assay [2], the “100 Max” value is on record as 44.42, the 100 ave is recorded as 26.11, the 500 ave is 76.89 and the “500 Max” value was found to be 78.63.
In the case of `O=C(CCl)Nc1cc(C(F)(F)F)cc(C(F)(F)F)c1` [KBO3], in assay [1] (uniprot Q9BQ39), the “100 Max” value is −9.62, the 100 ave is −13.925, the “500 Max” value is 28.63 and the 500 ave amounted to 22.82. In assay [2], the “100 Max” value was found to be 17.22, the 100 ave is recorded as 12.33, the 500 ave was found to be 40.875 and the “500 Max” value was 44.06.
